Patent US6399629B1, “Efflux pump inhibitors” (priority 1998, dated 2002)

System: Pseudomonas aeruginosa PAM1001
Assay: checkerboard assay (broth microdilution): levofloxacin MIC in presence of efflux pump inhibitor
Format: cell-based
In short: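 Checkerboard broth microdilution in Mueller Hinton Broth against P. aeruginosa PAM1001 (5×10^5 CFU/mL, early-log inoculum), levofloxacin and efflux pump inhibitor (up to 40 μg/mL) diluted along crossing axes. Plates incubated 20 h at 35° C; growth read at 650 nm and visually. Potentiation scored as reduced levofloxacin MIC.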

Compound	Levofloxacin MIC Against P. aerugiuosa PAM1001 in Presence of Efflux Pump Inhibitor (EPI), Minimum Inhibitory Concentration (EPI Conc. 0 μg/mL) [µg/mL]	Levofloxacin MIC Against P. aerugiuosa PAM1001 in Presence of Efflux Pump Inhibitor (EPI), Minimum Inhibitory Concentration (EPI Conc. 0.625 μg/mL) [µg/mL]	Levofloxacin MIC Against P. aerugiuosa PAM1001 in Presence of Efflux Pump Inhibitor (EPI), Minimum Inhibitory Concentration (EPI Conc. 1.25 μg/mL) [µg/mL]	Levofloxacin MIC Against P. aerugiuosa PAM1001 in Presence of Efflux Pump Inhibitor (EPI), Minimum Inhibitory Concentration (EPI Conc. 2.5 μg/mL) [µg/mL]	Levofloxacin MIC Against P. aerugiuosa PAM1001 in Presence of Efflux Pump Inhibitor (EPI), Minimum Inhibitory Concentration (EPI Conc. 5 μg/ mL) [µg/mL]	Levofloxacin MIC Against P. aerugiuosa PAM1001 in Presence of Efflux Pump Inhibitor (EPI), Minimum Inhibitory Concentration (EPI Conc. 10 μg/mL) [µg/mL]	Levofloxacin MIC Against P. aerugiuosa PAM1001 in Presence of Efflux Pump Inhibitor (EPI), Minimum Inhibitory Concentration (EPI Conc. 20 μg/mL) [µg/mL]	Levofloxacin MIC Against P. aerugiuosa PAM1001 in Presence of Efflux Pump Inhibitor (EPI), Minimum Inhibitory Concentration (EPI Conc. 40 μg/mL) [µg/mL]
NCC(=O)N[C@@H]1CN[C@@H](C(=O)N[C@H](CCc2ccccc2)C(=O)NCCCc2ccccc2)C1 [Compound M2]	4	4	4	4	2	2	0.25	0.125
NCCC(=O)N[C@H]1CN[C@H](C(=O)N[C@H](CCc2ccccc2)C(=O)Nc2cnc3ccccc3c2)C1 [Compound M6, (2S,4R)-4-[3-(Aminopropionamido])-N-[(1R)-3-phenyl-1-(3-quinolylcarbamoyl)propyl]-2-pyrrolidinecarboxamide]	4	4	4	4	4	2	0.06	0.015
C[C@@H](N)C(=O)N[C@@H]1CN[C@@H](C(=O)N(CCC(C)(C)C)CC(=O)Nc2cnc3ccccc3c2)C1 [Compound M47]	4	4	4	4	4	4	2	0.03
NC[C@@H]1CN[C@@H](C(=O)N[C@H](CCc2ccccc2)C(=O)Nc2cccc3cccnc23)C1 [Compound M30, (2R,4R)-4-(Aminomethyl)-N-[(1R)-3-pheyl-1-(8-quinolylcarbamoyl)propyl]-2-pyrrolidinecarboxamide]	4	4	4	4	4	2	0.03	0.015
